Experimental findings from patent US6235754A, “Methods and compositions for protecting animals and humans against attack and infestation by arthropod and helminth parasites” (American Cyanamid Company, priority 1999, dated 2001) are described below.

Like-named read-outs stand apart in the source and are kept apart here.

Format in all cases: in vivo
In data set [1] the test system is Bovicola spp. (biting louse). Description: Activity against the adult biting louse (Table VI). Conditions: dose 2.0 μg/cm^2. How it is done: This test is designed to evaluate the activity of test compounds against the biting louse. Test compounds are dissolved in 100% acetone to 300, 100 and 10 ppm. 100 μL of each of these dilutions is added to the bottom of a 20 mL glass scintillation vial with a pipettor. The vial is allowed to dry under a fume hood for 15 minutes. The bottom of the vial measures 4.909 cm^2. The amount of test compound applied by each dilution equals 6.1, 2.0 and 0.2 μg/cm^2, respectively. Included in all tests are two to three replications of untreated vials. Lice are collected from the host animal and are used within 4 hours. The lice are counted into the scintillation vials with a slightly damp paintbrush. Five adult lice are placed in each vial. These tests are done in replicates of two or three so that there are 10 to 15 lice per rate/compound. Mortality readings are taken at 2 and 4 hours after placing the lice in the vials. To read the test, the vial is placed under a magnifying glass. […] Percent mortality is then calculated for each treatment.

Data set [2] deals with Ctenocephalides felis (cat flea). Kind of data set: whole plant or invertebrate. The settings on record: topical, 24 h, read-out: 24 Hour % Mortality. On the procedure: (§1) This test is designed to evaluate the contact activity of test compounds against the adult cat flea. Test compounds are dissolved in 100% acetone to 300, 100, 10 and 1 ppm. 100 μL of each of these dilutions is added to the bottom of a 20 mL glass scintillation vial with a pipettor. The vial is allowed to dry under a fume hood for 15 minutes. The bottom of the vial measures 4.909 cm^2. The amount of test compound applied by each dilution equals 6.2, 2.0, 0.2 and 0.02 μg/cm^2, respectively. Newly emerged adult cat fleas are anesthetized with CO2 to immobilize, and are counted into the scintillation vials with forceps. Five fleas are placed in each vial. These tests are done in replicates of two or three so that there are 10 to 15 fleas per rate/compound. Mortality readings are taken 4 and 24 hours after placing the fleas in the vials. […] Percent mortality is then calculated for each treatment.
This test evaluates the synergistic effect of piperonyl butoxide on the formula I compounds of this invention. Piperonyl butoxide (PBO) is added in an amount of 1.5% to a 1,000 ppm solution of a test compound in acetone. Dilutions are then made with acetone to provide solutions containing 300, 100, 10 and 1 ppm of the test compound and 0.45%, 0.15%, 0.015% and 0.0015% piperonyl butoxide, respectively. Solutions containing 1,000, 300, 100, 10 and 1 ppm of the test compound alone are used as the control. […]

Data set [3] relates to Dermacentor variabilis (American dog tick). Kind of data set: Contact activity against the larval American dog tick (Table II). The settings on record: topical. How it is done: This test is designed to evaluate the contact activity of test compounds against the American dog tick. Test compounds are dissolved in 100% acetone to 1000, 300, 100, 10, 1 and 0.1 ppm. 100 μL of each of these dilutions is added to the bottom of a 20 mL glass scintillation vial with a pipettor. The vial is allowed to dry under a fume hood for 15 minutes. The vial is then turned in its side, and 250 μL of each dilution is applied to the sides of the vial. The vial is placed on a rolling machine and allowed to roll under the hood, coating the sides of the vial, until the acetone completely evaporates. The bottom of the vial measures 4.909 cm^2 and the sides measure 4.5 cm high×8.8 cm around, so that the total coated area of the scintillation vial measures 44.51 cm^2. The amount of test compound applied by each dilution equals 7.86, 2.36, 0.79, 0.079, 0.0079 and 0.00079 μg/cm^2, respectively. Unfed larval dog ticks are counted into the scintillation vials with a slightly damp paintbrush. Ten ticks are placed in each vial. These tests are done in replicates of two or three so that there are 20 to 30 ticks per rate/compound. Mortality readings are taken 4 and 24 hours after placing the ticks in the vials. To read the test, the vial is placed under a magnifying glass and tapped gently. […] Percent mortality is then calculated for each treatment.

In data set [4] the test system is Ctenocephalides felis (cat flea). Description: Contact activity against the adult cat flea (Table I). Conditions: topical. How it is done:
as §1

The mark [5] stands for this setting: 4 h, read-out: 4 Hour % Mortality.
Where [6] appears, read: 24 h, read-out: 24 Hour % Mortality.

As to `F/C(=C\Cc1ccc(F)c(Oc2ccccc2)c1)C(c1ccc(Cl)cc1)C1CC1` (stereo not drawn) [Compound 5, 1-[1-(p-Chlorophenyl)-2-fluoro-4-(4-fluoro-3-phenoxyphenyl)-2-butenyl]cyclopropane, (Z)-], the “2 Hour % Mortality” value in data set [1] is given as 92%. For the same compound, the results for the mortality at 2 µg/cm2 in data set [2] and in data set [4] (setting [5]) were 100% and 79%, respectively. Also, the mortality – broadly, the percentage killed – at 6.2 µg/cm2 is 100% in data set [2] and 98% in data set [4] (4 hours, dose 6.20 μg/cm^2, read-out: 4 Hour % Mortality). For the same compound, the mortality at 0.00079 µg/cm2 was found to be 100% in data set [3] (4 hours, dose 0.00079 μg/cm^2, read-out: 4 Hour % Mortality) and 100% in data set [3] (24 hours, dose 0.00079 μg/cm^2, read-out: 24 Hour % Mortality). The mortality at 0.0079 µg/cm2 in data set [3] (4 hours, dose 0.0079 μg/cm^2, read-out: 4 Hour % Mortality) worked out at 100%; in data set [3] (24 hours, dose 0.0079 μg/cm^2, read-out: 24 Hour % Mortality), 100%. In addition, the mortality at 0.079 µg/cm2 in data set [3] (4 hours, dose 0.079 μg/cm^2, read-out: 4 Hour % Mortality) was 100%; in data set [3] (24 hours, dose 0.079 μg/cm^2, read-out: 24 Hour % Mortality), 100%. The mortality at 0.79 µg/cm2 in data set [3] (4 hours, dose 0.790 μg/cm^2, read-out: 4 Hour % Mortality) amounted to 100%; in data set [3] (24 hours, dose 0.790 μg/cm^2, read-out: 24 Hour % Mortality) it was 100%. Also, the mortality at 2.36 µg/cm2 in data set [3] (4 hours, dose 2.360 μg/cm^2, read-out: 4 Hour % Mortality) worked out at 100%; in data set [3] (24 hours, dose 2.360 μg/cm^2, read-out: 24 Hour % Mortality), 100%. Further, the mortality at 7.86 µg/cm2 in data set [3] (4 hours, dose 7.860 μg/cm^2, read-out: 4 Hour % Mortality) was found to be 100%; in data set [3] (24 hours, dose 7.860 μg/cm^2, read-out: 24 Hour % Mortality), 100%. In addition, the mortality at 0.02 µg/cm2 in data set [4] (setting [5]) amounted to 34%; in data set [4] (setting [6]), 69%. Further, the mortality at 0.2 µg/cm2 in data set [4] (setting [5]) is 39%; in data set [4] (setting [6]), 81%.
